Results taken from patent publication US20220313670A1, “Methods Of Treating Fabry Disease In Patients Having Renal Impairment” (Amicus Therapeutics, Inc., priority 2019, published 2022).
“And” between values parts separate entries of the source, which are not always exact repeats. Equal values may be shown once. Read-outs that look alike come from different tables or passages of the source.

Columns and labels:
[1] = Phase 1 single-dose pharmacokinetics and safety study of migalastat HCl in non-Fabry subjects with renal impairment (Example 1, AT1001-015); format: in vivo, human; settings: for AUC0-∞: individual subjects, in ng·h/mL; for concentration at 96 h: read-out: C96 h, Mean; for Comparison to Example 1 Moderate Impairment (migalastat concentration): non-Fabry subjects with moderate renal impairment, in ng/mL (unit assumed); for Comparison to Example 1 Severe Impairment (migalastat concentration): non-Fabry subjects with severe renal impairment, (coefficient of variation)
Protocol: The eGFR estimated by the Cockcroft-Gault equation per the FDA Guidance for renal impairment studies.
Volunteers were enrolled into two cohorts stratified for renal function calculated using the Cockcroft-Gault equation for creatinine clearance (CLcr). Subjects were assigned to groups based on an estimated CLcr at screening as calculated using the Cockcroft-Gault equation.
Subjects were grouped according to degree of renal dysfunction: mild (CLcr ≥60 and <90 mL/min), moderate (CLcr ≥30 and <60 mL/min), or severe (CLcr ≥15 and <30 mL/min)

[2] = FACETS (011) population PK from sparse blood sampling in Fabry patients; format: in vivo, human; settings: for Comparison to FACETS PPK (migalastat concentration): Fabry patients of FACETS
Excerpt: One or more of the dosing regimens described herein are particularly suitable for Fabry patients who have some degree of renal impairment. […] FACETS (011, NCT00925301) was a 24-month trial, including a 6-month double-blind, placebo-controlled period, in 67 enzyme replacement therapy (ERT)-naive patients. ATTRACT (012, NCT01218659) was an active-controlled, 18-month trial in 57 ERT-experienced patients with a 12-month open-label extension (OLE). Both the FACETS and ATTRACT studies included patients having an estimated glomerular filtration rate (eGFR) of ≥30 ml/min/1.73 m^2. Accordingly, both studies included Fabry patients with normal renal function as well as patients with mild and moderate renal impairment, but neither study included patients with severe renal impairment.
Thus, two Fabry patients with renal impairment were evaluated. One patient (P1) had moderate renal impairment, while the other patient (P2) had severe renal impairment. […] The comparison with the results from the FACETS study allows for comparison of PK in the Fabry population with mostly normal, but some mild and a few moderately impaired Fabry patients. None had severe renal impairment because these patients were excluded from the study.

lyso-Gb3 = test: Plasma lyso-Gb3 in Fabry patients on migalastat; format: in vivo, human
Excerpt: In further embodiments, the method further comprises measuring lyso-Gb3 in one or more plasma samples from the patient. A first baseline lyso-Gb3 level may be determined during the first time period. As used herein, “baseline lyso-Gb3 level” refers to the lowest plasma lyso-Gb3 value measured during a given time period or dosing regimen. […] Thus, in further embodiments, the administration of the second time period is begun after an increase (e.g., of at least about 20, 25, 30, 33, 35, 40, 45 or 50% and/or 1, 1.25, 1.5, 1.75, 2, 2.25, 2.5 or 3 nM) above the first baseline lyso-Gb3 level is measured. […] Lyso-Gb3 levels may be measured at varying frequencies (e.g., about once every 2, 3, 4 or 5 months). It is thought that it takes about 3 months for a baseline lyso-Gb3 level to be established once a dosing regimen has been started.
Lyso-Gb3 can be measured via methods known in the art using validated assays. […] For example, one process of measuring plasma lyso-Gb3 is described in Hamler, Rick, et al. “Accurate quantitation of plasma globotriaosylsphingosine (lyso-Gb3) in normal individuals and Fabry disease patients by liquid chromatography—tandem mass spectrometry (LC—MS/MS).” Molecular Genetics and Metabolism, Volume 114.2 (2015):S51. In one or more embodiments, lyso-Gb3 is measured in samples from a patient's urine.

cardiac repolarization = settings: 150 mg and 1250 mg single doses; cited from earlier work
[3] = AT1001-015, Mild (CLcr ≥60-<90 mL/min), N 8
[4] = AT1001-015, Moderate (CLcr ≥30-<60 mL/min), N 8
[5] = AT1001-015, Normal (CLcr ≥90 mL/min), N 8
[6] = AT1001-015, Severe (CLcr ≥15-<30 mL/min), N 8
[7] = human, plasma, po, 150 mg, single oral 150 mg migalastat HCl, non-Fabry subjects, renal function group Mild (N = 8)
[8] = human, plasma, po, 150 mg, single oral 150 mg migalastat HCl, non-Fabry subjects, renal function group Moderate (N = 8)
[9] = human, plasma, po, 150 mg, single oral 150 mg migalastat HCl, non-Fabry subjects, renal function group Normal (N = 8)
[10] = human, plasma, po, 150 mg, single oral 150 mg migalastat HCl, non-Fabry subjects, renal function group Severe (N = 8)
[11] = single oral 150 mg migalastat HCl, non-Fabry subjects, renal function group Mild (N = 8)
[12] = single oral 150 mg migalastat HCl, non-Fabry subjects, renal function group Moderate (N = 8)
[13] = single oral 150 mg migalastat HCl, non-Fabry subjects, renal function group Normal (N = 8)

Structure (SMILES): OC[C@H]1NC[C@H](O)[C@@H](O)[C@H]1O [migalastat, (2R,3S,4R,55)-2-(hydroxymethyl) piperdine-3,4,5-triol]
- AUC0-t, Geometric mean [1, 3]: 14.374 µg·h/mL
- AUC0-∞, Geometric mean (CV %) [1, 3]: 14520 (30.8) hr*ng/mL
- C96 h, Mean [1, 3]: BLQ
- Frel [1, 3]: 1.2
- t1/2, Mean [1, 3]: 7.7 h
- tmax, Median (min-max) [1, 3]: 2.5 (1.5-4.0) hr
- AUC0-t, Geometric mean [1, 4]: 22.122 µg·h/mL
- AUC0-∞, Geometric mean (CV %) [1, 4]: 22455 (41.2) hr*ng/mL
- Frel [1, 4]: 1.8
- AUC0-t, Geometric mean [1, 5]: 12.299 µg·h/mL
- AUC0-∞, Geometric mean (CV %) [1, 5]: 12389 (24.8) hr*ng/mL
- C96 h, Mean [1, 5]: BLQ
- t1/2, Mean [1, 5]: 6.4 h
- tmax, Median (min-max) [1, 5]: 2.5 (1.5-3.0) hr
- AUC0-t, Geometric mean [1, 6]: 53.098 µg·h/mL
- AUC0-∞, Geometric mean (CV %) [1, 6]: 56174 (24.2) hr*ng/mL
- Cmax, Geometric mean (CV %) [1, 6]: 2078 (43.3) ng/mL
- Frel [1, 6]: 4.5
- AUC0-∞ ([1]; NCA SD Data, single 150 mg migalastat HCl, Moderate (≥30-≤35) group): 36051 and 40653 and 19723
- AUC0-∞ ([1]; NCA SD Data, single 150 mg migalastat HCl, Severe (<30) group): 83312 and 54470 and 48890 and 62034 and 59538 and 65916 and 36227 and 49905
- concentration at 48 h ([1]; human, plasma, oral, 150 mg, 150 mg dose of migalastat hydrochloride, individuals with normal kidney function, level of quantification, read-out: C48h): < 0.005 µg/mL
- concentration at 48 h ([1]; human, plasma, oral, 150 mg, AT1001-015, Mild (CLcr ≥60-<90 mL/min), N 8, read-out: C48 h, Mean): 0.00934 µg/mL
- concentration at 96 h ([1]; human, plasma, oral, 150 mg, AT1001-015, Moderate (CLcr ≥30-<60 mL/min), N 8): 0.0167 µg/mL
- concentration at 48 h ([1]; human, plasma, oral, 150 mg, AT1001-015, Normal (CLcr ≥90 mL/min), N 8, read-out: C48 h, Mean): 0.0057 µg/mL
- AUC(0-inf) ([1]; human, plasma, oral, 150 mg, NCA SD Data, single 150 mg migalastat HCl, Geometric Mean of the 11 subjects): 47.6 µg·h/mL
- concentration at 96 h ([1]; human, plasma, oral, 150 mg, AT1001-015, Severe (CLcr ≥15-<30 mL/min), N 8): 0.105 µg/mL
- tmax ([1]; human, plasma, oral, 150 mg, AT1001-015, Severe (CLcr ≥15-<30 mL/min), N 8, read-out: tmax, Median (min-max)): 4 h
- AUC(0-inf) [1, 7]: 14.5 µg·h/mL
- AUC(0-t) [1, 7]: 14.4 µg·h/mL
- Cmax [1, 7]: 2.19 µg/mL
- AUC(0-inf) [1, 8]: 22.5 µg·h/mL
- AUC(0-t) [1, 8]: 22.1 µg·h/mL
- Cmax [1, 8]: 1.87 µg/mL
- AUC(0-inf) [1, 9]: 12.4 µg·h/mL
- AUC(0-t) [1, 9]: 12.3 µg·h/mL
- Cmax [1, 9]: 2.1 µg/mL
- AUC(0-inf) [1, 10]: 56.2 µg·h/mL
- AUC(0-t) [1, 10]: 53.1 µg·h/mL
- Plasma migalastat C48h levels compared with healthy control subjects ([1]; moderate (predominantly CrCL <50 ml/min) and severe renal impairment): elevated
- Comparison to Example 1 Moderate Impairment (migalastat concentration) ([1]; 3 Hrs Post): 1868
- Comparison to Example 1 Moderate Impairment (migalastat concentration) ([1]; 24 Hrs Post): 239
- Comparison to Example 1 Moderate Impairment (migalastat concentration) ([1]; 48 Hrs Post): 64.5
- Comparison to Example 1 Moderate Impairment (migalastat concentration) ([1]; Pre-dose (0 h), same value as 48 h): 64.5
- Comparison to Example 1 Severe Impairment (migalastat concentration) ([1]; 2 h): 1549 (59.3%)
- Comparison to Example 1 Severe Impairment (migalastat concentration) ([1]; 24 h): 770 (26.5%)
- Comparison to Example 1 Severe Impairment (migalastat concentration) ([1]; 48 h): 334 (38.2%)
- Cmax compared to healthy control subjects ([1]; single oral 150 mg migalastat HCl, across any of the renal impairment groups): not increased
- Incidence of adverse events ([1]; single oral 150 mg migalastat HCl, all renal function groups): comparable across all renal function groups
- mean plasma migalastat AUC0-∞ increase compared to healthy control subjects ([1]; single oral 150 mg migalastat HCl, mild renal impairment): 1.2 fold
- mean plasma migalastat AUC0-∞ increase compared to healthy control subjects ([1]; single oral 150 mg migalastat HCl, moderate renal impairment): 1.8 fold
- CL/F [1, 11]: 10.3 L/h
- t1/2 [1, 11]: 7.66 h
- tmax [1, 11]: 2.50 h
- CL/F [1, 12]: 6.68 L/h
- tmax [1, 12]: 3.00 h
- CL/F [1, 13]: 12.1 L/h
- t1/2 [1, 13]: 6.42 h
- tmax [1, 13]: 2.50 h
- CL/F ([1]; single oral 150 mg migalastat HCl, non-Fabry subjects, renal function group Severe (N = 8)): 2.67 L/h
- tmax compared to healthy control subjects ([1]; single oral 150 mg migalastat HCl, severe group): slightly delayed
- mean plasma migalastat AUC0-∞ increase compared to healthy control subjects ([1]; single oral 150 mg migalastat HCl, severe renal impairment): 4.5 fold
- Comparison to FACETS PPK (migalastat concentration) ([2]; 3 Hrs Post, (coefficient of variation)): 1180 (31.0%)
- Comparison to FACETS PPK (migalastat concentration) ([2]; 48 Hrs Post): 8.70
- Comparison to FACETS PPK (migalastat concentration) ([2]; 48 h): 8.70
- Comparison to FACETS PPK (migalastat concentration) ([2]; Pre-dose (0 h)): 8.70
- concentration at 48 h ([2]; human, plasma, 150 mg, FACETS population PK, 150 mg QOD, read-out: PPK Cmin): 0.0087 µg/mL
- AUC(0-t) ([2]; human, plasma, 150 mg, 011 PPK (CLcr ≥30-≥90 mL/min), N 62, QOD regimen, read-out: AUC0-t, Geometric mean): 9.03 µg·h/mL
- concentration at 48 h ([2]; human, plasma, 150 mg, 011 PPK (CLcr ≥30-≥90 mL/min), N 62, QOD regimen, read-out: C48 h, Mean): 0.00754 µg/mL
- Cmax ([2]; human, plasma, 150 mg, 011 PPK (CLcr ≥30-≥90 mL/min), N 62, QOD regimen, read-out: Cmax, Geometric mean (CV %)): 1.18 µg/mL
- half-life ([2]; human, plasma, 150 mg, 011 PPK (CLcr ≥30-≥90 mL/min), N 62, QOD regimen, read-out: t1/2, Mean (converted)): 20.6 h
- AUC ([2]; human, plasma, 150 mg, reference AUC of the 011 PK model, the same value printed on every subject line): 9.52 µg·h/mL
- Lyso-Gb3 (lyso-Gb3; Fabry patient P1, 18 Month Visit): 11.1 nM/L
- Lyso-Gb3 (lyso-Gb3; Fabry patient P1, 24 Month Visit): 13.1 nM/L
- Lyso-Gb3 (lyso-Gb3; Fabry patient P1, 30 Month Visit): 10.8 nM/L
- Lyso-Gb3 (lyso-Gb3; Fabry patient P1, 34-Month Visit): 9.3 nM/L
- change of plasma lyso-Gb3 from previous visits (lyso-Gb3; Fabry patient P1, decline in renal function to eGFR of 32 mL/min/1.73 m^2): has not shown clinically relevant changes
- Lyso-Gb3 (lyso-Gb3; Fabry patient P3, August 2014, QOD): 13.10 nmol/L
- Lyso-Gb3 (lyso-Gb3; Fabry patient P3, August 2017, Q4D): 9.85 nmol/L
- Lyso-Gb3 (lyso-Gb3; Fabry patient P3, February 2014, QOD): 11.10 nmol/L
- Lyso-Gb3 (lyso-Gb3; Fabry patient P3, February 2015, QOD): 10.80 nmol/L
- Lyso-Gb3 (lyso-Gb3; Fabry patient P3, February 2018, Q7D): 7.04 nmol/L
- Lyso-Gb3 (lyso-Gb3; Fabry patient P3, January 2018, Q7D): 9.04 nmol/L
- Lyso-Gb3 (lyso-Gb3; Fabry patient P3, June 2015, QOD): 9.30 nmol/L
- Lyso-Gb3 (lyso-Gb3; Fabry patient P3, March 2011, QOD): 24.15 nmol/L
- Lyso-Gb3 (lyso-Gb3; Fabry patient P3, March 2016, QOD): 8.46 nmol/L
- Lyso-Gb3 (lyso-Gb3; Fabry patient P3, May 2017, Q4D): 13.10 nmol/L
- Lyso-Gb3 (lyso-Gb3; Fabry patient P3, November 2017, Q4D): 8.55 nmol/L
- Lyso-Gb3 (lyso-Gb3; Fabry patient P3, September 2010, QOD): 27.30 nmol/L
- Lyso-Gb3 (lyso-Gb3; Fabry patient P3, September 2015, QOD): 7.36 nmol/L
- effect on cardiac repolarization (cardiac repolarization): negative
